Measurements: patent US8278263B2, “Method of regulating mammalian target-of-rapamycin activity by interaction between phospholipase D and raptor” (Postech Academy-Industry Foundation, priority 2006, dated 2012)

Columns and labels:
[1] = tested on: phosphorylations of S6K1 and 4EBP1; experiment: Phosphorylation of S6K1 and 4EBP1 after isozyme-specific PLD siRNA knockdown (western blot); type: cell-based, human; monkey
Text: Pairs of 21-nucleotide sense and antisense RNA oligomers were synthesized and annealed by Dharmacon Research, Inc. (Lafayette, Colo.). The oligonucleotides used for PLD2 were: sense, 5′-AAGAGGUGGCUGGUGGUGAAG-3′ (SEQ ID NO: 9) and antisense, 5′-CUUCACCACCAGCCACCUCUU-3′ (SEQ ID NO: 10), which correspond to human PLD2 coding nucleotides 703-723. The oligonucleotides used for PLD1 were: sense, 5′-AAGGUGGGACGACAAUGAGCA-3′ (SEQ ID NO: 11), and antisense, 5′-UGCUCAUUGUCGUCCCACCUU-3′ (SEQ ID NO: 12), which correspond to human PLD1a coding nucleotides 1455-1475. All siRNA sequences were subjected to BLAST in the NCBI database and complete matches were only found for PLD2 sequences. Luciferase GL2 duplex was purchased from Dharmacon Research, Inc. and was used as a negative control. For add-back experiment for PLD2 silencing, three residues of human PLD2 cDNA (nucleotides 703-723 of PLD2; […]; SEQ ID NO: 13) are substituted to […] for addback mutants of PLD2^wt (Kim, J. H., Kim, J. H., Ohba, M., Suh, P. G., Ryu, S. H. Mol. Cell. Biol. 25 (2005) 3194, which is hereby incorporated by reference). This mutation is silencing mutations. This gene is subcloned into mammalian expression vector pcDNA3.1 (Invitrogen) and digested with restriction enzymes KpnI and XbaI. These mutations are confirmed through nucleotide sequence analysis. […]

phosphorylation of S6K1 = experiment: Mitogen-dependent phosphorylation of S6K1 in siRNA-transfected COS7 cells; type: cell-based, monkey; details: siRNA knockdown, 20% BCS
Description: The indicated siRNAs were transfected into COS7 cells, and 36 hrs later, cells were deprived of serum for 24 hrs. 20% of BCS was then treated and the resulting lysates were subjected to SDS-PAGE.

PLD2 = target: T1, PLD2 (Homo sapiens, UniProt O14939); experiment: In vivo PLD assay (PBt formation) in response to nutrient levels; type: cell-based; details: PLD2wt transfected cells; leucine-free vs leucine-added media; 0.4% 1-butanol
T1 construct: showing a schematic view of PLD2 N-terminal deleted fragments versus whole PLD2; expressed in transfected cells
Description: In vivo PLD activity was assayed by measuring the formation of phosphatidyl-butanol as described in “Lee, J. S., Kim, J. H., Jang, I. H., Kim, H. S., Han, J. M., Kazlauskas, A., Yagaisawa, H., Suh, P. G., Ryu, S. H. J. Cell Sci. 118 (2005) 4405,” which is hereby incorporated by reference. In brief, cells were loaded with [^3H]myristic acid (2 μCi/ml) for 8 hrs and then washed twice with DMEM. Labeled cells were incubated with 0.4% butanol for 10 min to measure basal PLD activity. Total lipids were extracted with 1.2 ml of methanol:1 M NaCl:chloroform (1:1:1 by volume) and then separated by thin-layer chromatography on silica gel plates. The amount of [^3H]phosphatidyl-butanol formed was expressed as a percentage of total [^3H]lipid to account for cell labeling efficiency differences.

[2] = tested on: interaction between PLD2 and mTOR; experiment: Co-IP with anti-mTOR antibody of PLD2 and mTOR complex; type: cell-based, human; monkey
Description: (§1) After harvesting COS7 cells, total extracts were prepared by brief sonication in ice-cold lysis buffer (40 mM HEPES pH7.5, 120 mM NaCl, 1 mM EDTA, 10 mM pyrophosphate, 10 mM glycerophosphate, 50 mM NaF, 1.5 mM Na3VO4, 0.5% CHAPS, 1 mM PMSF, protease inhibitor cocktails). Clarified extracts were mixed with 2 μg of the respective antibodies. Then protein A-Sepharose beads were added to isolate the antibody complex. After four washings with lysis buffer, the final immunoprecipitates were washed once with wash buffer (50 mM HEPES pH7.5, 150 mM NaCl), and then subjected to SDS-PAGE using Hyperfilm (Amersham Pharmacia Biotech), nitrocellulose membranes (Watmann), Power supply (Amersham Pharmacia Biotech), Electrophoretic Transfer unit (Hoefer Scientific Instruments), and ECL™ (Amersham Pharmacia Biotech).

[3] = tested on: binding between PLD2 and raptor; experiment: Co-IP of HA-raptor/PLD2 in HEK293 cells after leucine treatment; type: cell-based, human; details: HA-raptorwt/PLD2wt transfected HEK293 cells; leucine treatment after leucine deprivation
Description: as §1
Either HA-raptor^wt/PLD2^wt was transfected into HEK293 cells, and the cells were subjected to leucine deprivation. Co-IP after leucine treatment was followed by Western blot analysis. Importantly, the interaction between Rheb and PLD2 was also regulated by nutrient levels such that this interaction was stabilized under high nutrient conditions and weakened under low nutrient conditions, which allowed a nutrient-dependent mTOR complex composed of mTOR, raptor, PLD2, and Rheb to be identified.

S6K1 phosphorylation = experiment: Exogenous PA rescue of mTOR signaling in PLD knocked-down cells (SDS-PAGE/western blot); type: cell-based, human; monkey
Description: Next, another experiment was conducted to test whether exogenous PA can rescue mTOR signal abrogation in PLD2-knocked-down cells. HEK293 and COS7 cells were transfected with the indicated siRNAs using lipofectamine. After 36 hrs, cells were deprived of serum for 24 hrs. 100 μM of C-6 PA solubilized in DW was then treated for 30 min. Resulting lysates were subject to SDS-PAGE.
The inventor reasoned that if the role of PLD2 in mTOR activation is solely that of PA generation, then the exogenous addition of PA should completely rescue mTOR signaling despite PLD2 expression.

mTOR-raptor interaction = experiment: Co-IP analysis of the mTOR-raptor interaction; type: cell-based, monkey; details: COS7 cells
S6K1 = tested on: S6K1
Description: Until now, the function of PLD2 in nutrient signaling has not been proposed. To this end, the importance of PLD2 in nutrient signaling was tested. […] PLD2^wt was transfected and allowed to express for 24 hr.

T1 sequence (O14939 whole entry R172C/T577I, the tested form may be a part): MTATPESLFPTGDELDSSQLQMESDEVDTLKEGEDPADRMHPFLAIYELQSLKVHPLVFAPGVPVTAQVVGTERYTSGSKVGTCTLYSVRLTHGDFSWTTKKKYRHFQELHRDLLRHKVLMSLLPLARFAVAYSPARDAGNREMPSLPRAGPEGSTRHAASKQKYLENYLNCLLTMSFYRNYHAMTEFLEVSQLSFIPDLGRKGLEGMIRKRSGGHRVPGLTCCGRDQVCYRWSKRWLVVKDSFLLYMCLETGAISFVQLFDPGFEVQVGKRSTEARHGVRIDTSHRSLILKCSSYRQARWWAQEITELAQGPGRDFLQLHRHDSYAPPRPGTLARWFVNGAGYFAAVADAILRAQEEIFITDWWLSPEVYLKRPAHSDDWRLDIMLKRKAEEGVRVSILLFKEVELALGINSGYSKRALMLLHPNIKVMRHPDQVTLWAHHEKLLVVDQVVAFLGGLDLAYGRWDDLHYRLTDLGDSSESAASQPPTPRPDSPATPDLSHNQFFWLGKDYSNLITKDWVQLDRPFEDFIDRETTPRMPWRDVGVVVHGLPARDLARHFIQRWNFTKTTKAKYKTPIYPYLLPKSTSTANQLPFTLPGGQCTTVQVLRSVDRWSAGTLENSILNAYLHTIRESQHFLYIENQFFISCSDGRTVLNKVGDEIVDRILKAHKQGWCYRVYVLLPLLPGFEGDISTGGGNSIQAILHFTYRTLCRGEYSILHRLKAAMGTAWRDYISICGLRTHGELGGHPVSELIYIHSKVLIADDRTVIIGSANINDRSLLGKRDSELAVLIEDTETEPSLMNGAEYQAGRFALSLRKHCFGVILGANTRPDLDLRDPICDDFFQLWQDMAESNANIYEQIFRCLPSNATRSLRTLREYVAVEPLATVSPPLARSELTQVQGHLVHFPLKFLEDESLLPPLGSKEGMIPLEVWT

Question: How did the “silencing effect on mTOR signaling” value ([1]; siRNA silencing) turn out when “PLD1 siRNA: 21-nt siRNA duplex SEQ ID NO: 11/12, human PLD1a coding nucleotides 1455-1475 (chain 1 AAGGUGGGACGACAAUGAGCA; chain 2 UGCUCAUUGUCGUCCCACCUU; RNA, backbone not given here)” was run?
Answer: modest

Question: And the “mitogen-dependent phosphorylation of S6K1” value (phosphorylation of S6K1)?
Answer: only a modest effect

Question: What does the source list for “PLD2 siRNA: 21-nt siRNA duplex SEQ ID NO: 9/10, human PLD2 coding nucleotides 703-723 (chain 1 AAGAGGUGGCUGGUGGUGAAG; chain 2 CUUCACCACCAGCCACCUCUU; RNA, backbone not given here)”?
Answer: phosphorylations of S6K1 and 4EBP1 ([1]; siRNA knockdown, HEK293, OVCAR-3 and COS7 cells, serum-deprived 24 hrs, compared with PLD1 knockdown): dramatically reduced; mitogen-dependent phosphorylation of S6K1 (phosphorylation of S6K1): profoundly reduced

Question: What does the source list for CC(C)C[C@H](N)C(=O)O [leucine]?
Answer: PLD2 activity (PBt formation) (PLD2): reversibly regulated; interaction between endogenous PLD2 and endogenous mTOR complex ([2]; leucine treatment in leucine-deprived COS7 and HEK293 cells): increased; binding between PLD2 and raptor [3]: enhanced binding

Question: CO[C@H]1C[C@@H]2CC[C@@H](C)[C@@](O)(O2)C(=O)C(=O)N2CCCC[C@H]2C(=O)O[C@H]([C@H](C)C[C@@H]2CC[C@@H](O)[C@H](OC)C2)CC(=O)[C@H](C)/C=C(\C)[C@@H](O)[C@@H](OC)C(=O)[C@H](C)C[C@H](C)/C=C/C=C/C=C/1C [rapamycin] was tested. Which “effect on the interaction between PLD2 and mTOR” value ([2]; mTOR inhibition by rapamycin) did it give?
Answer: no effect

Question: Which results are given for CCCCCC(=O)OC[C@H](COP(=O)(O)O)OC(=O)CCCCC [PA, C-6 phosphatidic acid]?
Answer: rescue of silencing effect of PLD1 on mTOR signaling (S6K1 phosphorylation; PLD1 silencing, PA treatment): completely rescued; S6K1 phosphorylation triggered by exogenous PA (S6K1 phosphorylation; PLD2-knocked-down HEK293 and COS7 cells, 100 μM C-6 PA, 30 min): could not trigger S6K1 phosphorylation; rescue of PLD2 effect on mTOR signaling (S6K1 phosphorylation; PLD2 silencing, exogenous PA treatment): not rescued; modulation of the mTOR-raptor interaction (mTOR-raptor interaction): neither reducing PA generation with 1-butanol nor adding PA modulates

Question: Which “stimulatory effect of leucine on S6K1” value (S6K1) does the source give for 1-butanol here?
Answer: significantly reduced

Question: And the “modulation of the mTOR-raptor interaction” value (mTOR-raptor interaction)?
Answer: neither reducing PA generation with 1-butanol nor adding PA modulates
